These results are taken from publication PMC3463753 (Molecular pharmaceutics, 2012).

In this data set the test system is MDCK-WT, MDCK-CYP3A4 and MDCK-MDR1-CYP3A4 cells. As to the kind of experiment: Mannitol. Type of data set: in vitro ADME, dog. The settings on record: paracellular marker; data not shown.

Consider `OC[C@@H](O)[C@@H](O)[C@H](O)[C@H](O)CO` [mannitol], for which the “Mannitol transport in MDCK-WT, MDCK-CYP3A4 and MDCK-MDR1-CYP3A4 cells” value is recorded as “No significant difference”.
